Experiments:
[1] = molecular target: Steroidogenic factor 1 (Homo sapiens) (UniProt Q13285); test: Selectivity interaction (Reporter gene assay) EUB0000081c NR5A1; parameters: recommended concentration 1 uM
[2] = molecular target: T1, Alpha trans-inducing protein (Human alphaherpesvirus 1) (UniProt A0A5J6DW59); test: Selectivity interaction (Reporter gene assay) EUB0000081c UL48; parameters: recommended concentration 1 uM
[3] = molecular target: Nuclear receptor subfamily 4immunitygroup A member 1 (Homo sapiens) (UniProt P22736); test: Selectivity interaction (Reporter gene assay) EUB0000081c NR4A1; parameters: recommended concentration 1 uM
[4] = molecular target: Nuclear receptor subfamily 2 group E member 1 (Homo sapiens) (UniProt Q9Y466); test: Selectivity interaction (Reporter gene assay) EUB0000081c NR2E1; parameters: recommended concentration 1 uM
[5] = molecular target: T2, Retinoic acid receptor RXR-alpha (Homo sapiens) (UniProt P19793); test: Selectivity interaction (Reporter gene assay) EUB0000081c RXRA; parameters: recommended concentration 1 uM
T2 sequence (whole entry): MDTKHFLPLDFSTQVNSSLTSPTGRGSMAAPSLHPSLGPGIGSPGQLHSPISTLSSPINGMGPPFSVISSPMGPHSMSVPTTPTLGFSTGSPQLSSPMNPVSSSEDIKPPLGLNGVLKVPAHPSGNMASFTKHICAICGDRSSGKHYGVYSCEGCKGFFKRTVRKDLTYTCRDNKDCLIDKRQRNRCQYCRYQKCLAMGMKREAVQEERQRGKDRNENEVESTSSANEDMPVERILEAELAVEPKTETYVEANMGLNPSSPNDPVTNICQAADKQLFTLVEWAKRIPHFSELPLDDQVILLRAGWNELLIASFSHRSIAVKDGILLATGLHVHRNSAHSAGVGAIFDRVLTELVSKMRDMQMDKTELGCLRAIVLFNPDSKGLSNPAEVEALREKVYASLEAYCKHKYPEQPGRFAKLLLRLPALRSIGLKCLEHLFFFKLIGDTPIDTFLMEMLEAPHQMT

[6] = molecular target: T3, Nuclear receptor subfamily 2 group C member 1 (Homo sapiens) (UniProt P13056); test: Selectivity interaction (Reporter gene assay) EUB0000081c NR2C1; parameters: recommended concentration 1 uM
T3 sequence (whole entry): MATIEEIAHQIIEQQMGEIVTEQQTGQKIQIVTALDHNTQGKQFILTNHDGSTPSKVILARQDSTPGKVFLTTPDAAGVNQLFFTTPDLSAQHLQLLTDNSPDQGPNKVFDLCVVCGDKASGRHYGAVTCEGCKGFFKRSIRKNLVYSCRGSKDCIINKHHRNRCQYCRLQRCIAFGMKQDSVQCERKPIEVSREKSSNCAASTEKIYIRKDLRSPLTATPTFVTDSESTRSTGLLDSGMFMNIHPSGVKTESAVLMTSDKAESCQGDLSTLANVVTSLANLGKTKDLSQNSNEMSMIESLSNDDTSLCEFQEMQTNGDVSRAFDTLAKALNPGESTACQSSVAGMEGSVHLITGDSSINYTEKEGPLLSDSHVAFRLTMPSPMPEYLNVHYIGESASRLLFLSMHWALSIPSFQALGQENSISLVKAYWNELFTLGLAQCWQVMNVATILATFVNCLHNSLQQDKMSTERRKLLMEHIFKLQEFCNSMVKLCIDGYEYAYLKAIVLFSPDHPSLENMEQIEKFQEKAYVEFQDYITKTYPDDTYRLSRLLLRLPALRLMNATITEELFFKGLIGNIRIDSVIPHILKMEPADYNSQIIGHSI

[7] = molecular target: T4, Hepatocyte nuclear factor 4-alpha (Homo sapiens) (UniProt P41235); test: Selectivity interaction (Reporter gene assay) EUB0000081c HNF4A; parameters: recommended concentration 1 uM
T4 sequence (whole entry): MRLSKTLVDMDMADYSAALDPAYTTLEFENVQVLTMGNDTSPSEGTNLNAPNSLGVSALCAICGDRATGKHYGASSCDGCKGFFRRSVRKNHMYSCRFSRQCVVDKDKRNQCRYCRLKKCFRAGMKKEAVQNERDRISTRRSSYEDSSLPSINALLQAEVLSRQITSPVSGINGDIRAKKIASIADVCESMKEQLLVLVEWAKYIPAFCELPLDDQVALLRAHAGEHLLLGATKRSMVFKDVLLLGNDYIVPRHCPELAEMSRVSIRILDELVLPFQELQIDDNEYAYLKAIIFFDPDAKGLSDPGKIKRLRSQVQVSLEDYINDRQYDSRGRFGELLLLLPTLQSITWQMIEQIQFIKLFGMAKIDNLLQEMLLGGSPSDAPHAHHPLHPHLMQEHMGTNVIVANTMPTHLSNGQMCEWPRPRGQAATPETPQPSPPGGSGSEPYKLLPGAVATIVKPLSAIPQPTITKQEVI

[8] = molecular target: Nuclear receptor subfamily 4immunitygroup A member 1 (Homo sapiens) (UniProt P22736)
[9] = molecular target: T1, Alpha trans-inducing protein (Human alphaherpesvirus 1); test: Selectivity interaction (Reporter gene assay) EUB0000040b UL48; parameters: recommended concentration 1 uM
[10] = molecular target: Nuclear receptor subfamily 2 group E member 1 (Homo sapiens) (UniProt Q9Y466)
[11] = molecular target: Nuclear receptor subfamily 4immunitygroup A member 1 (Homo sapiens) (UniProt P22736); test: Selectivity interaction (Reporter gene assay) EUB0000188b NR4A1; parameters: recommended concentration 1 uM
[12] = molecular target: Steroidogenic factor 1 (Homo sapiens) (UniProt Q13285); test: Selectivity interaction (Reporter gene assay) EUB0000188b NR5A1; parameters: recommended concentration 1 uM
[13] = molecular target: T4, Hepatocyte nuclear factor 4-alpha (Homo sapiens); test: Selectivity interaction (Reporter gene assay) EUB0000188b HNF4A; parameters: recommended concentration 1 uM
[14] = molecular target: T2, Retinoic acid receptor RXR-alpha (Homo sapiens); test: Selectivity interaction (Reporter gene assay) EUB0000188b RXRA; parameters: recommended concentration 1 uM; conditions: reference bexarotene 1 uM, Selectivity number of off-targets 0.0, Selectivity number of targets 1.0, Source Knowledge inhouse
[15] = molecular target: T3, Nuclear receptor subfamily 2 group C member 1 (Homo sapiens); test: Selectivity interaction (Reporter gene assay) EUB0000188b NR2C1; parameters: recommended concentration 1 uM
[16] = molecular target: Nuclear receptor subfamily 2 group E member 1 (Homo sapiens) (UniProt Q9Y466); test: Selectivity interaction (Reporter gene assay) EUB0000188b NR2E1; parameters: recommended concentration 1 uM
[17] = molecular target: T1, Alpha trans-inducing protein (Human alphaherpesvirus 1); test: Selectivity interaction (Reporter gene assay) EUB0000188b UL48; parameters: recommended concentration 1 uM
[18] = molecular target: Bromodomain-containing protein 7 (Homo sapiens) (UniProt Q9NPI1); test: Selectivity interaction (Bromodomain panel) EUB0000323b BRD7; parameters: recommended concentration 1 uM
[19] = molecular target: Transcription initiation factor TFIID subunit 1-like (Homo sapiens) (UniProt Q8IZX4); test: Selectivity interaction (Bromodomain panel) EUB0000323b TAF1L; parameters: recommended concentration 1 uM
[20] = molecular target: Transcription intermediary factor 1-alpha (Homo sapiens) (UniProt O15164); test: (§1) Selectivity interaction (Bromodomain panel) EUB0000323b TRIM24; parameters: recommended concentration 1 uM
[21] = molecular target: Adenosine receptor A1 (Homo sapiens) (UniProt P30542); test: Selectivity interaction (CEREP panel) EUB0000323b ADORA1; parameters: recommended concentration 1 uM; conditions: at 10 µM
[22] = molecular target: Bromodomain-containing protein 3 (Homo sapiens) (UniProt Q15059); test: (§2) Selectivity interaction (Bromodomain panel) EUB0000323b BRD3; parameters: recommended concentration 1 uM
[23] = molecular target: Transcription intermediary factor 1-alpha (Homo sapiens) (UniProt O15164); test: as §1; parameters: recommended concentration 1 uM; remark: listed apart in the source
[24] = molecular target: Bromodomain-containing protein 4 (Homo sapiens, UniProt O60885); test: Selectivity interaction (Bromodomain panel) EUB0000323b BRD4; parameters: recommended concentration 1 uM
[25] = molecular target: Bromodomain-containing protein 3 (Homo sapiens) (UniProt Q15059); test: as §2; parameters: recommended concentration 1 uM; remark: listed apart in the source
[26] = molecular target: Nuclear receptor subfamily 2 group E member 1 (Homo sapiens) (UniProt Q9Y466); test: Selectivity interaction (Reporter gene assay) EUB0000190b NR2E1; parameters: recommended concentration 1 uM
[27] = molecular target: T1, Alpha trans-inducing protein (Human alphaherpesvirus 1); test: Selectivity interaction (Reporter gene assay) EUB0000190b UL48; parameters: recommended concentration 1 uM
[28] = molecular target: Nuclear receptor subfamily 4immunitygroup A member 1 (Homo sapiens) (UniProt P22736); test: Selectivity interaction (Reporter gene assay) EUB0000190b NR4A1; parameters: recommended concentration 1 uM
[29] = molecular target: T3, Nuclear receptor subfamily 2 group C member 1 (Homo sapiens); test: Selectivity interaction (Reporter gene assay) EUB0000190b NR2C1; parameters: recommended concentration 1 uM
[30] = molecular target: T4, Hepatocyte nuclear factor 4-alpha (Homo sapiens); test: Selectivity interaction (Reporter gene assay) EUB0000190b HNF4A; parameters: recommended concentration 1 uM
[31] = molecular target: Steroidogenic factor 1 (Homo sapiens) (UniProt Q13285); test: Selectivity interaction (Reporter gene assay) EUB0000190b NR5A1; parameters: recommended concentration 1 uM
[32] = molecular target: T2, Retinoic acid receptor RXR-alpha (Homo sapiens); test: Selectivity interaction (Reporter gene assay) EUB0000190b RXRA; parameters: recommended concentration 1 uM; conditions: reference bexarotene 1 uM, Selectivity number of off-targets 0.0, Selectivity number of targets 1.0, Source Knowledge inhouse
[33] = molecular target: T2, Retinoic acid receptor RXR-alpha (Homo sapiens); test: Selectivity interaction (Reporter gene assay) EUB0000183b RXRA; parameters: recommended concentration 3 uM
[34] = molecular target: Steroidogenic factor 1 (Homo sapiens) (UniProt Q13285); test: Selectivity interaction (Reporter gene assay) EUB0000183b NR5A1; parameters: recommended concentration 3 uM
[35] = molecular target: T4, Hepatocyte nuclear factor 4-alpha (Homo sapiens); test: Selectivity interaction (Reporter gene assay) EUB0000183b HNF4A; parameters: recommended concentration 3 uM
[36] = molecular target: Nuclear receptor subfamily 2 group E member 1 (Homo sapiens) (UniProt Q9Y466); test: Selectivity interaction (Reporter gene assay) EUB0000183b NR2E1; parameters: recommended concentration 3 uM
[37] = molecular target: T1, Alpha trans-inducing protein (Human alphaherpesvirus 1); test: Selectivity interaction (Reporter gene assay) EUB0000183b UL48; parameters: recommended concentration 3 uM
[38] = molecular target: T3, Nuclear receptor subfamily 2 group C member 1 (Homo sapiens); test: Selectivity interaction (Reporter gene assay) EUB0000183b NR2C1; parameters: recommended concentration 3 uM
[39] = molecular target: Nuclear receptor subfamily 4immunitygroup A member 1 (Homo sapiens) (UniProt P22736); test: Selectivity interaction (Reporter gene assay) EUB0000183b NR4A1; parameters: recommended concentration 3 uM

T1 sequence (A0A5J6DW59 as listed by the source): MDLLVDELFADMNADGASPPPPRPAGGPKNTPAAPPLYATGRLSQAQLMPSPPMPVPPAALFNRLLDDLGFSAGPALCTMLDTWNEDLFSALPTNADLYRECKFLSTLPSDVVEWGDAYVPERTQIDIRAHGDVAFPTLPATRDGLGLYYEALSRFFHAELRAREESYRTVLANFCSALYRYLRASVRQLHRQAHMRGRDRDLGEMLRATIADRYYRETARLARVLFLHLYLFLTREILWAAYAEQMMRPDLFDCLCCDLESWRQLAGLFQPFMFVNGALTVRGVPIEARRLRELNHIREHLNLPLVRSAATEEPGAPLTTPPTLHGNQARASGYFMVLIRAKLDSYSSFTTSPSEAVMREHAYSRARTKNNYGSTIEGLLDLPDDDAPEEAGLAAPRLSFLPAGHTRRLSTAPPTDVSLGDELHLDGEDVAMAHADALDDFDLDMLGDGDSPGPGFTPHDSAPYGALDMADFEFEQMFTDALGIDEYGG
Steroidogenic factor 1 (Homo sapiens), sequence (Q13285 whole entry): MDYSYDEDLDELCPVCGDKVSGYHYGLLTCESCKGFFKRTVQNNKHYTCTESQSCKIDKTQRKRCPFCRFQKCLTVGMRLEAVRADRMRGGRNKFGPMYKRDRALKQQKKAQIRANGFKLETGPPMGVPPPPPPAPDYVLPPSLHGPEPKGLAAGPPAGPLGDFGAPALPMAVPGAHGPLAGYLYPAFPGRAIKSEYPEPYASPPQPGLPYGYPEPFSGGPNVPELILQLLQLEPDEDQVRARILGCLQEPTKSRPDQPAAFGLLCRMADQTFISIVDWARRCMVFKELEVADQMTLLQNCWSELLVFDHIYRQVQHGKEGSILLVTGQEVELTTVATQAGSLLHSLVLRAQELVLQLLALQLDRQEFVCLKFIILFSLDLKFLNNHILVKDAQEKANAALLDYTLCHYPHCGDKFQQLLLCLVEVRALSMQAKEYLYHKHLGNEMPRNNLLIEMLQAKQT
Nuclear receptor subfamily 2 group E member 1 (Homo sapiens), sequence (Q9Y466 whole entry): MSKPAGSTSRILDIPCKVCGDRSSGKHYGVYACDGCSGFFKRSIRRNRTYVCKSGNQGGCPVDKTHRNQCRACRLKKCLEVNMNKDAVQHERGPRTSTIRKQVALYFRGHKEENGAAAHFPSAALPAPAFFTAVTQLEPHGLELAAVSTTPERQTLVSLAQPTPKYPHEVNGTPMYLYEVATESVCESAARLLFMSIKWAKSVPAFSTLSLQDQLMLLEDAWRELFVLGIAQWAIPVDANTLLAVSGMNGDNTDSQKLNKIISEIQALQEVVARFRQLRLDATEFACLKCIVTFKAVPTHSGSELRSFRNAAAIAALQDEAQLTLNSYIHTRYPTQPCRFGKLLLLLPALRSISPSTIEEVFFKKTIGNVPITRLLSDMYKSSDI
Nuclear receptor subfamily 4immunitygroup A member 1 (Homo sapiens), sequence (P22736 whole entry): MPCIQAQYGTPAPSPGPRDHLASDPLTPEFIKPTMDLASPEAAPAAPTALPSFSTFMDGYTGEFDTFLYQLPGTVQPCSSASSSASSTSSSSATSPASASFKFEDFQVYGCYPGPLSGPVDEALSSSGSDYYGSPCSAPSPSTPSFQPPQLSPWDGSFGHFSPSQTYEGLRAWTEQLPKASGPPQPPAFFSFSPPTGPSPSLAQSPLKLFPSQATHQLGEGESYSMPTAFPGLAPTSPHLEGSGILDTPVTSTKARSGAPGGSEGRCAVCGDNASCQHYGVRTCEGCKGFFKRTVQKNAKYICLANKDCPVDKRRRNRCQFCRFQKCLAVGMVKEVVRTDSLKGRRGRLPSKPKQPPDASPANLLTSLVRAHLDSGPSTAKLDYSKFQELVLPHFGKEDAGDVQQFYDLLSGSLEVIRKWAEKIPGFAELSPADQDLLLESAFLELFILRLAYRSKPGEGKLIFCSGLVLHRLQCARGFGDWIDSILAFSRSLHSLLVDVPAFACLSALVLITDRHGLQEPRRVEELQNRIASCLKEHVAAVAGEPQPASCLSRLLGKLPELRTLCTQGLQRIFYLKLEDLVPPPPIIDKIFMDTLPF
Bromodomain-containing protein 3 (Homo sapiens), sequence (Q15059 2-726 limits assumed): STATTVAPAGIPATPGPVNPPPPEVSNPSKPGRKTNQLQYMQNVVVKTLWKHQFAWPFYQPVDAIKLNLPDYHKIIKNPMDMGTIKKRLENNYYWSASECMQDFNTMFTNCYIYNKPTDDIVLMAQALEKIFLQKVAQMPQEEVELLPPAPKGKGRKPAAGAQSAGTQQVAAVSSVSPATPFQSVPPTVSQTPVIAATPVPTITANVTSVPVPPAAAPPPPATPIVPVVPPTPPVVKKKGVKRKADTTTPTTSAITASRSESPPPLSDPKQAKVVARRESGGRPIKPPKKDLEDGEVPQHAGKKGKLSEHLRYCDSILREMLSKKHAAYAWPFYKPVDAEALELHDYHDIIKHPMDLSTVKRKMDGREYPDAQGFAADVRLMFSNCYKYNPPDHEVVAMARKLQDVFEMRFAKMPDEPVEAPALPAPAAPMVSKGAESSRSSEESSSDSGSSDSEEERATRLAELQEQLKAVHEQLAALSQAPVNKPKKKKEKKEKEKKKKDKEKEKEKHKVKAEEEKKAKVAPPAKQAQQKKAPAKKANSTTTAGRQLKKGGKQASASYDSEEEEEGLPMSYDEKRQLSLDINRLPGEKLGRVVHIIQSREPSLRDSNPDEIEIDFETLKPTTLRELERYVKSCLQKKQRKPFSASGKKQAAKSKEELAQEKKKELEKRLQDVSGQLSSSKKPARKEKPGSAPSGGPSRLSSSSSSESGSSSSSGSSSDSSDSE
Transcription intermediary factor 1-alpha (Homo sapiens), sequence (O15164 whole entry): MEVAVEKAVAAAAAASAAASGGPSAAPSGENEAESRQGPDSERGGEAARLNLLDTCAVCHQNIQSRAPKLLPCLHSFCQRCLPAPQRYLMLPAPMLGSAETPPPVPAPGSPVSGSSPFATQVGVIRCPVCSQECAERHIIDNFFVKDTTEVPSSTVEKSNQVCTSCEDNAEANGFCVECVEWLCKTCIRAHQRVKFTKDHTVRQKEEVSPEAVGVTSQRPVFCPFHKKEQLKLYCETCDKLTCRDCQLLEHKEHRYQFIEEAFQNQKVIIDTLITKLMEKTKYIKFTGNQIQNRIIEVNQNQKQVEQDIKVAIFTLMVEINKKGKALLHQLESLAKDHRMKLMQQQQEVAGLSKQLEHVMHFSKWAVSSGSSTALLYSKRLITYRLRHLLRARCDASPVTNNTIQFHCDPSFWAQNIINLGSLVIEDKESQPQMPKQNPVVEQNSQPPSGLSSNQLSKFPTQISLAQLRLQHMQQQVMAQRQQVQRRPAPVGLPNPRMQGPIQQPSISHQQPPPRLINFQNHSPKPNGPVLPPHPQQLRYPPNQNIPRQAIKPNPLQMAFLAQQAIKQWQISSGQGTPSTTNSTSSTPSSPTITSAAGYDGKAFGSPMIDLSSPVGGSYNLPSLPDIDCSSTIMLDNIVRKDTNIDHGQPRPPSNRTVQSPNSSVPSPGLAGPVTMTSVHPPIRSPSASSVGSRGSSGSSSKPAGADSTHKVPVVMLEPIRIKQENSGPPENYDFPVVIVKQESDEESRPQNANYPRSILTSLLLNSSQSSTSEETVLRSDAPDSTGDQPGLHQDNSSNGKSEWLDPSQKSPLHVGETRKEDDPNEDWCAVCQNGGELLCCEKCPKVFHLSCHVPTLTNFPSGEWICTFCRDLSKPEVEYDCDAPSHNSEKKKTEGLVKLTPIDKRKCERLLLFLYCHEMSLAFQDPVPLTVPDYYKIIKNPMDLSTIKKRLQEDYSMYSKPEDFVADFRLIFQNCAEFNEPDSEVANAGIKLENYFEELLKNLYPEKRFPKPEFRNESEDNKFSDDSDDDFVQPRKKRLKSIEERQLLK
Adenosine receptor A1 (Homo sapiens), sequence (P30542 whole entry): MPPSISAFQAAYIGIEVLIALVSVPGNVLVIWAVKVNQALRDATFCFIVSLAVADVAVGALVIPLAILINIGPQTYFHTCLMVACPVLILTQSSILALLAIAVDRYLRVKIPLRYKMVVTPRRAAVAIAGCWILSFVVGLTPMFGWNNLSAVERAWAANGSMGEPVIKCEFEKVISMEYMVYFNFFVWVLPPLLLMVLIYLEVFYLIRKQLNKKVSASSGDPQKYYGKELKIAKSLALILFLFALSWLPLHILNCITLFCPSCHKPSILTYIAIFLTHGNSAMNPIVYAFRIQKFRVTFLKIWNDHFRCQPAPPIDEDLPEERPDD
Bromodomain-containing protein 7 (Homo sapiens), sequence (Q9NPI1 whole entry): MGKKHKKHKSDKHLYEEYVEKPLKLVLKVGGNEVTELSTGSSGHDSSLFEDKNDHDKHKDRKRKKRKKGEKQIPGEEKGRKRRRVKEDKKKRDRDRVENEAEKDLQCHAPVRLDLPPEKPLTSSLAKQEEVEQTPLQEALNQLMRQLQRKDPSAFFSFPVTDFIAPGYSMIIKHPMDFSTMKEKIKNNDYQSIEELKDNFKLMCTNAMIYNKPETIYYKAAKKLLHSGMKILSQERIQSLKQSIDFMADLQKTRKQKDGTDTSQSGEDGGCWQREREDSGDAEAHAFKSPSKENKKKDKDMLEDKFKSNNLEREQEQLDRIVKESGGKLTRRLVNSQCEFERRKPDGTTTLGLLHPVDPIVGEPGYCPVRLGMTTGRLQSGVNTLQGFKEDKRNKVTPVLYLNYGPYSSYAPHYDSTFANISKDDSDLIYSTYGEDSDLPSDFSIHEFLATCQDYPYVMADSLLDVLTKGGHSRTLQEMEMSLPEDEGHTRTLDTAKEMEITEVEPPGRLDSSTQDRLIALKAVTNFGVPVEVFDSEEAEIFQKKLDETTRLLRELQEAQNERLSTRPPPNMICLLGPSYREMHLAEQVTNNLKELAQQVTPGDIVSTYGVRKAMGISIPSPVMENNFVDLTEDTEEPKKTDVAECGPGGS

Compound: CC[C@H]1[C@@H](O)[C@@H]2[C@H](CC[C@]3(C)[C@@H]([C@H](C)CCC(=O)O)CC[C@@H]23)[C@@]2(C)CC[C@@H](O)C[C@@H]12
- Fold activation [1]: 1.04
- P-value [2]: 0.000147
- Fold activation [3]: 1.23
- Fold activation [4]: 1.13
- Relative activation [5]: 0.53%
- Fold activation [6]: 1.19
- Fold activation [7]: 1.14

Compound: O=S(=O)(c1ccccc1)N(CC(F)(F)F)c1ccc(C(O)(C(F)(F)F)C(F)(F)F)cc1
- Remaining activity [8]: 0.903
- P-value [9]: 0.000575
- Remaining activity [10]: 0.742

Compound: CCCc1c(OCCCOc2ccc(OCC(=O)O)cc2)ccc(C(C)=O)c1O
- Fold activation [11]: 1.22
- Remaining activity [12]: 0.985
- Fold activation [13]: 1.1
- Relative activation [14]: 1.18%
- Fold activation [15]: 1.36
- Fold activation [16]: 1.34
- P-value [17]: 1.09e-07

Compound: COc1cc2c(cc1NS(=O)(=O)c1ccc(Br)cc1C)n(C)c(=O)n2C
- ΔTm [18]: 1.2 °C
- ΔTm [19]: 1.4 °C
- ΔTm [20]: 1.6 °C
- Inhibition of control [21]: 82%
- ΔTm [22]: 1.6 °C
- ΔTm [23]: 1.8 °C
- ΔTm [24]: 2 °C
- ΔTm [25]: 1.4 °C

Compound: CN(CCOc1ccc(CC2SC(=O)NC2=O)cc1)c1ccccn1 (centres undefined)
- Fold activation [26]: 1.05
- P-value [27]: 2.07e-12
- Remaining activity [28]: 0.964
- Fold activation [29]: 1.17
- Fold activation [30]: 1.09
- Fold activation [31]: 1.08
- Relative activation [32]: 1.04%

Compound: Cc1cc(C)c(S(=O)(=O)N(Cc2ccc(-c3cccc(S(C)(=O)=O)c3)cc2)Cc2ccc(C(F)(F)F)o2)c(C)c1
- Relative activation [33]: 0.984%
- Fold activation [34]: 1.29
- Fold activation [35]: 1.28
- Fold activation [36]: 1.26
- P-value [37]: 0.011
- Fold activation [38]: 1.06
- Remaining activity [39]: 0.982

— ChEMBL document CHEMBL5715260, “Selectivity Literature for EUbOPEN Chemogenomic Library” (2024)
